In patent US11077126B2 (priority 2017, dated 2021):
Like-named read-outs stand apart in the source and are kept apart here.

Test system: mouse bone marrow polychromatic erythrocytes
Conditions: mouse, in vivo; for Number of Micronuclei / P/N / P/N Ratio: po
Method: It is the object to test the mutagenic potential of drugs on mammalian somatic cells, and provide a basis for clinical drug use.
An appropriate amount of 0.5% sodium carboxymethyl cellulose solution was added to prepare a suspension, and the suspension was stored in a refrigerator at 4° C. The negative control was an equal amount of 0.5% sodium carboxymethylcellulose solution. The positive control was prepared as follows: an appropriate amount of cyclophosphamide used for injection was weighed, and was dissolved in normal saline at the time of use to prepare 60 mg/kg of solution.
6 mice per group. The doses, number of administrations, and bone marrow sampling time are selected in the pre-test.
The dose is reduced by ½ LD50 as the standard, and the number of administrations is one time. According to the pre-test results, the bone marrow sampling time is to sample 24 hours after administration.
At least three dose groups, respectively: 2,000 mg/kg, 1,000 mg/kg, 500 mg/kg
The number of administrations: one-time oral administration.
Oral (Intragastric) administration.
2.4.3 Bone marrow sampling time: 24 hours after administration.
The mice were sacrificed by cervical dislocation. Then the sternums were taken to remove the muscles thereon and the attachments were wiped with a gauze. Direct smear of bone marrow was used: the sternums were cut to expose the medullary cavity, and bone marrow was extruded and mixed well with a drop of calf serum on a slide beforehand as a push piece. After being dried, the slide was fixed in methanol for 10 minutes, and then after it was dried, it was then subjected to Giemsa staining. Each mouse was microscopically examined for about 1,000 polychromatic erythrocytes with intact contours of erythrocytes, and the frequency of occurrence of micronuclei and the ratio of polychromatic erythrocytes to erythrocytes were counted.

## Carrimycin
  conclusion of micronucleus test: chromosomal cleavage: is not a chromosomal cleavage agent
  conclusion of micronucleus test: effect on the bone marrow: no inhibitory effect on the bone marrow
  micronucleus rate of polychromatic erythrocytes compared with the negative control group: do not have significant increase
500 mg/kg
  Number of Micronuclei: 18
  P/N: 0.34
  P/N Ratio: 0.34
1000 mg/kg
  Number of Micronuclei: 16
  P/N: 0.33
  P/N Ratio: 0.33
2000 mg/kg
  Number of Micronuclei: 21
  P/N: 0.38
  P/N Ratio: 0.38
